From US10544137B2, “PI3K inhibitor, and pharmaceutically acceptable salt, polycrystalline form, and application thereof” (SHANGHAI HAIYAN PHARMACEUTICAL TECHNOLOGY CO., LTD., priority 2016, dated 2020)
Converted amounts (≈) assume the structure as drawn.

Experiments:
Assay type in all cases: physicochemical
[1] = Hygroscopicity experiment (DVS); conditions: for hygroscopicity (in words): DVS, 25° C.; for moisture absorbed: humidity increased to 80% RH at 25° C.
Description: The Dynamic Vapor Sorption (DVS) curve was acquired on the DVS Intrinsic of Surface Measurement Systems.
The DVS test results of the crystal form A and the crystal form B-1 were shown in FIG. 26 and FIG. 27, respectively.
The DVS test results of the crystal form C, crystal form D-2, crystal form E, and crystal form F were shown in FIG. 28, FIG. 29, FIG. 30, and FIG. 31.

[2] = Solid phase stability experiment (sealed at 60° C., HPLC purity); conditions: for solid phase stability (in words): 60° C., at 7 days and 21 days
Procedure: 5 mg of samples were weighed and sealed at 60° C., respectively. Another set of samples were sealed and stored at −20° C. as a control at the same time. All samples were characterized by HPLC at 7 days and 21 days to detect changes in purity.

[3] = Solubility experiment in 0.1M HCl, buffers and water; conditions: for Solubility (mg/mL) 0.1M HCl / Solubility (mg/mL) pH 4.5 / Solubility (mg/mL) pH 6.8 / Solubility (mg/mL) H2O: ambient temperature; for Solubility (mg/mL) pH 4.5: pH 4.5 buffer; for Solubility (mg/mL) pH 6.8: pH 6.8 buffer; for solubility in water compared with the free base (in words) / Solubility (mg/mL) H2O: water
Procedure: The solubilities of the following four kinds of salt and free base sample in 0.1M HCl, pH 4.5 buffer, pH 6.8 buffer, and water were tested at ambient temperature. In the test, the calibration curves of free base and four kinds of salt were plotted. 3 mg of solid samples of free base and four kinds of salt were weighed, respectively, and then 1 ml of the solvent was added, centrifuged after 30 min ultrasound. The supernatant was taken, and injected through the membrane, and the solubility was tested.

[4] = Solubility of crystal form I in common solvents; conditions: ambient temperature; for solubility: thermodynamic from solid
Procedure: The solubility of the crystal form I in 11 common solvents at ambient temperature was tested. In the experiment, the crystal form I was formulated into standard solutions of different concentrations using 50% acetonitrile as solvent according to the following table, and injected to the HPLC instrument. The peak area was recorded and the standard curve was plotted, and the curve equation: y=11.30762x, R^2=0.99998, which has a good linear correlation in a range of 4.9 μg/ml˜499 μg/ml was obtained. 10-80 mg of crystal form I was weighed into 0.5-10 ml of different solutions in the following table to prepare a saturated solution, sonicated for 3-5 min, dispersed evenly and then taken out, centrifuged at 12000 rpm for 5 min. The supernatant was drawn and diluted at a certain multiple, injected to the HPLC, the peak area was recorded, the sample concentration was calculated, and the pH of undiluted samples was determined.

CS(=O)(=O)C1(c2cc(-c3cnc(N)cc3Cl)nc(N3CCOCC3)n2)CC1 [crystal form C]
hygroscopicity (in words) [1]: almost no hygroscopicity | moisture absorbed [1]: 0.17% | solid phase stability (in words) [2]: good stability | Purity (%) ([2]; 60° C.-0 day): 99.73% | Total impurities (%) ([2]; 60° C.-0 day): 0.27% | Purity (%) ([2]; 60° C.-7 days, sealed): 99.74% | Total impurities (%) ([2]; 60° C.-7 days, sealed): 0.26% | Purity (%) ([2]; 60° C.-21 days, sealed): 99.75% | Total impurities (%) ([2]; 60° C.-21 days, sealed): 0.25% | Solubility (mg/mL) 0.1M HCl [3]: 1.875 mg/mL (≈ 4.57 mM) | Solubility (mg/mL) pH 4.5 [3]: 0.027 mg/mL | Solubility (mg/mL) pH 6.8 [3]: 0.010 mg/mL | solubility in water compared with the free base (in words) [3]: obviously improved | Solubility (mg/mL) H2O [3]: 0.174 mg/mL (≈ 0.424 mM)

CS(=O)(=O)C1(c2cc(-c3cnc(N)cc3Cl)nc(N3CCOCC3)n2)CC1 [crystal form I, 4-chloro-5-(6-(1-(methylsulfonyl)cyclopropyl)-2-morpholinopyrimidin-4-yl)pyridin-2-amine]
hygroscopicity (in words) [1]: almost no hygroscopicity | water absorbed ([1]; humidity increased to 90% RH at 25° C.): 0.084% | Concentration ([4]; 50% acetonitrile): 10998 µg/mL | Concentration ([4]; acetone): 28464 µg/mL | Concentration ([4]; acetonitrile): 13724 µg/mL | solubility ([4]; aqueous with cosolvent or surfactant or cyclodextrin, 50% acetonitrile): 11000 µg/mL (≈ 26.8 mM) | Concentration ([4]; ethanol): 4680 µg/mL | Concentration ([4]; ethyl acetate): 12441 µg/mL | Concentration ([4]; isopropanol): 1837 µg/mL | Concentration ([4]; methanol): 9459 µg/mL | Concentration ([4]; methyl tert-butyl ether): 1044 µg/mL | solubility ([4]; organic solvent or mixture, acetone): 28500 µg/mL (≈ 69.4 mM) | solubility ([4]; organic solvent or mixture, acetonitrile): 13700 µg/mL (≈ 33.5 mM) | solubility ([4]; organic solvent or mixture, ethanol): > 4680 µg/mL | solubility ([4]; organic solvent or mixture, ethyl acetate): 12400 µg/mL (≈ 30.4 mM) | solubility ([4]; organic solvent or mixture, isopropanol): > 1840 µg/mL | solubility ([4]; organic solvent or mixture, methanol): > 9460 µg/mL | solubility ([4]; organic solvent or mixture, methyl tert-butyl ether): > 1040 µg/mL | solubility ([4]; organic solvent or mixture, tetrahydrofuran): 78100 µg/mL (≈ 191 mM) | Concentration ([4]; tetrahydrofuran): 78135 µg/mL | solubility ([4]; water): 185 µg/mL (≈ 0.451 mM) | Concentration ([4]; water): 185 µg/mL

CS(=O)(=O)C1(c2cc(-c3cnc(N)cc3Cl)nc(N3CCOCC3)n2)CC1 [crystal form D-2]
hygroscopicity (in words) [1]: almost no hygroscopicity | moisture absorbed [1]: 0.14% | solid phase stability (in words) [2]: good stability | Purity (%) ([2]; 60° C.-0 day): 98.37% | Total impurities (%) ([2]; 60° C.-0 day): 1.63% | Purity (%) ([2]; 60° C.-7 days, sealed): 98.22% | Total impurities (%) ([2]; 60° C.-7 days, sealed): 1.78% | Purity (%) ([2]; 60° C.-21 days, sealed): 98.25% | Total impurities (%) ([2]; 60° C.-21 days, sealed): 1.75% | Solubility (mg/mL) 0.1M HCl [3]: 1.195 mg/mL (≈ 2.92 mM) | Solubility (mg/mL) pH 4.5 [3]: 0.031 mg/mL | Solubility (mg/mL) pH 6.8 [3]: 0.013 mg/mL | solubility in water compared with the free base (in words) [3]: slightly improved | Solubility (mg/mL) H2O [3]: 0.023 mg/mL (≈ 0.0561 mM)

CS(=O)(=O)C1(c2cc(-c3cnc(N)cc3Cl)nc(N3CCOCC3)n2)CC1 [crystal form A]
hygroscopicity (in words) [1]: slightly hygroscopic | solid phase stability (in words) [2]: good stability | Purity (%) ([2]; 60° C.-0 day): 99.73% | Total impurities (%) ([2]; 60° C.-0 day): 0.27% | Purity (%) ([2]; 60° C.-7 days, sealed): 99.78% | Total impurities (%) ([2]; 60° C.-7 days, sealed): 0.22% | Purity (%) ([2]; 60° C.-21 days, sealed): 99.75% | Total impurities (%) ([2]; 60° C.-21 days, sealed): 0.25% | Solubility (mg/mL) 0.1M HCl [3]: >2.744 mg/mL | Solubility (mg/mL) pH 4.5 [3]: 0.020 mg/mL | Solubility (mg/mL) pH 6.8 [3]: 0.012 mg/mL | solubility in water compared with the free base (in words) [3]: obviously improved | Solubility (mg/mL) H2O [3]: 1.063 mg/mL (≈ 2.59 mM)

CS(=O)(=O)C1(c2cc(-c3cnc(N)cc3Cl)nc(N3CCOCC3)n2)CC1 [crystal form B-1]
hygroscopicity (in words) [1]: slightly hygroscopic | solid phase stability (in words) [2]: good stability | Purity (%) ([2]; 60° C.-0 day): 99.74% | Total impurities (%) ([2]; 60° C.-0 day): 0.26% | Purity (%) ([2]; 60° C.-7 days, sealed): 99.50% | Total impurities (%) ([2]; 60° C.-7 days, sealed): 0.50% | Purity (%) ([2]; 60° C.-21 days, sealed): 99.74% | Total impurities (%) ([2]; 60° C.-21 days, sealed): 0.26% | Solubility (mg/mL) 0.1M HCl [3]: >2.488 mg/mL | Solubility (mg/mL) pH 4.5 [3]: 0.026 mg/mL | Solubility (mg/mL) pH 6.8 [3]: 0.012 mg/mL | solubility in water compared with the free base (in words) [3]: obviously improved | Solubility (mg/mL) H2O [3]: 0.946 mg/mL (≈ 2.31 mM)

CS(=O)(=O)C1(c2cc(-c3cnc(N)cc3Cl)nc(N3CCOCC3)n2)CC1 [crystal form E]
hygroscopicity (in words) [1]: almost no hygroscopicity | moisture absorbed [1]: 0.12%

CS(=O)(=O)C1(c2cc(-c3cnc(N)cc3Cl)nc(N3CCOCC3)n2)CC1 [crystal form F]
hygroscopicity (in words) [1]: almost no hygroscopicity | moisture absorbed [1]: 0.26%
